Data as given in patent US20240124408A1 (Sanofi, priority 2020, published 2024).

Tests used:
Format in all cases: cell-based
human TRPM8 [1] = molecular target: T1, human TRPM8 (Homo sapiens, UniProt Q7Z2W7); assay: In vitro human TRPM8 automated patch-clamp assay (SyncroPatch 384PE, CHO cells); settings: CHO cells expressing human TRPM8, 28° C.
T1 construct: expressed in transfected cells; host or cells: CHO (p658 mammalian expression vector)
Experimental: (§1) In Vitro Pig and Human TRPM8 Automated Patch-Clamp Assays
(§2) Automated whole-cell recordings of compound effects were performed on the SyncroPatch 384PE (Nanion Technologies, Munich, Germany) incorporated into a Biomek FX pipetting robot (Beckman Coulter, Jersey City, NJ, USA) using the same engineered CHO cell lines expressing human or pig TRPM8 channels. Data acquisition and analysis were performed with the proprietary software PatchControl 384 and DataControl 384, respectively (Nanion Technologies, Munich, Germany). All recordings were carried out using planar borosilicate glass patch clamp chips in a 384-microtiter plate format with patch hole resistances of 2-4 MO. For recordings, standard intracellular solution was used containing (in mM): 130 KF, 4 NaCl, 1 MgCl2, 0.5 CaCl2, 10 HEPES and 10 EGTA/KOH (pH 7.2) and standard extracellular solution contained in mM: 150 NaCl, 4 KCl, 0.5 CaCl2, 1 MgCl2 and 10 HEPES (pH 7.3).
(§3) Prior to the electrophysiological measurements, cells were harvested using Accutase (GIBCO, Fisher Scientific) and resuspended in warmed extracellular solution. The cell suspension was kept in the dedicated cell reservoir at 28° C. at a 1 million/ml cell density and shaken at 500 rounds per min (rpm). Experiments were performed at 28° C. throughout. Cells were distributed in high resistance 4-holes-per-well Nanion chips where they were caught on the patch holes by application of a −80 mbar pressure. The cell membrane was ruptured to obtain the whole-cell configuration with a pressure pulse of −250 mbar for 2 seconds. Voltage protocols were constructed using PatchControl 384. The cells were held at a holding potential of −60 mV and TRPM8 currents were recorded using a ramp protocol from −80 to +80 mV every 5 seconds before and after compound addition. Resulting currents were recorded at both −80 and +80 mV and current kinetics were exported and analyzed. From each plate, control wells with 200 μM menthol were recorded to validate the assay. One concentration of compound was applied to each of the other wells. For each concentration, compound response was determined by subtracting the baseline current recorded before compound addition from the maximum peak elicited currents obtained after compound addition. Then, each compound response was normalized to control condition without compound and maximum current (Emax) obtained for each compound. Nanion DataControl 384 software plotted current response for each compound concentration and was able to calculate an EC50 value for each active compound.

pig TRPM8 [2] = molecular target: T2, pig TRPM8 (Sus scrofa, UniProt F1SM15); assay: In vitro pig TRPM8 automated patch-clamp assay (SyncroPatch 384PE, CHO cells); settings: CHO cells expressing pig TRPM8, 28° C.
T2 construct: expressed in transfected cells; host or cells: CHO (pcDNA5/FRT/TO vector; hygromycin B and blasticidin selection)
T2 sequence (F1SM15 1-1104): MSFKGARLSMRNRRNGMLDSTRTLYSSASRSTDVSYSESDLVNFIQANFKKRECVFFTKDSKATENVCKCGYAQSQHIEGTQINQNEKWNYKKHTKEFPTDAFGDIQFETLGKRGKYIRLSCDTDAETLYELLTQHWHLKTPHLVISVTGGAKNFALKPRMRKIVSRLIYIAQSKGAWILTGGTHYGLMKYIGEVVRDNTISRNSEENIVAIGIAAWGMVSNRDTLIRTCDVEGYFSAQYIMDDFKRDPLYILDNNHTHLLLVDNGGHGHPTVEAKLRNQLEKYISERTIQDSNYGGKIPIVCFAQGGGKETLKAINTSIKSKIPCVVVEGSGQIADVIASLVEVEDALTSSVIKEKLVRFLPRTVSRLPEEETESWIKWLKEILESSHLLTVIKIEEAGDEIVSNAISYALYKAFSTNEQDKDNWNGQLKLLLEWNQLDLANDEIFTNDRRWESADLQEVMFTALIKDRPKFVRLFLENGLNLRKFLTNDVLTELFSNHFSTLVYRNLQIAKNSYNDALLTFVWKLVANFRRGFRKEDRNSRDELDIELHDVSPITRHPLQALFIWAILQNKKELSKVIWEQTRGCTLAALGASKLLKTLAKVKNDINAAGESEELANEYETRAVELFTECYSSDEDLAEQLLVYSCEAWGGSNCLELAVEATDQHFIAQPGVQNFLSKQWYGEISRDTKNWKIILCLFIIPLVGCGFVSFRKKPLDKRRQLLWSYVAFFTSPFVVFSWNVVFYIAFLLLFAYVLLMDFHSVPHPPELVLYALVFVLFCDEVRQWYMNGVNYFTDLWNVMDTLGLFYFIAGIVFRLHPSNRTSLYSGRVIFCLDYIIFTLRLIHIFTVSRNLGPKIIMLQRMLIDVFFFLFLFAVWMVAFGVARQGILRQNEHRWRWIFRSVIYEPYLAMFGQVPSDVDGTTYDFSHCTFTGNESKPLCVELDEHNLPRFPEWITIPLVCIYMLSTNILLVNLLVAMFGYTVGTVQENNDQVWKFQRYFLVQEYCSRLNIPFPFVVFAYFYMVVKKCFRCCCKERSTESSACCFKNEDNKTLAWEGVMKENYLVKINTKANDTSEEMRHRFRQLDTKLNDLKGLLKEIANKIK
Experimental: as §1, §2, §3

human TRPM8 [3] = molecular target: T1, human TRPM8; assay: In vitro human TRPM8 fluorescence calcium flux assay (recombinant CHO cells, Fluo4-AM, FDSS6000); settings: recombinant CHO cells expressing human TRPM8; menthol-related EC50, normalized to 100 μM menthol
Procedure, shortened: (§4)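 Agonist EC50 values come from sixteen-point dose responses normalized to the 100 μM menthol maximum, fitted sigmoidally. Calcium rise was followed for 3 min post-addition in recombinant CHO lines (human or pig TRPM8). Cells were dye-loaded with 2 μM Fluo4-AM, 1 h at room temperature, probenecid-containing HBSS.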

pig TRPM8 [4] = molecular target: T2, pig TRPM8; assay: In vitro pig TRPM8 fluorescence calcium flux assay (recombinant CHO cells, Fluo4-AM, FDSS6000); settings: recombinant CHO cells expressing pig TRPM8; menthol-related EC50, normalized to 100 μM menthol
Procedure, shortened: as §4

T1 sequence (Q7Z2W7 whole entry): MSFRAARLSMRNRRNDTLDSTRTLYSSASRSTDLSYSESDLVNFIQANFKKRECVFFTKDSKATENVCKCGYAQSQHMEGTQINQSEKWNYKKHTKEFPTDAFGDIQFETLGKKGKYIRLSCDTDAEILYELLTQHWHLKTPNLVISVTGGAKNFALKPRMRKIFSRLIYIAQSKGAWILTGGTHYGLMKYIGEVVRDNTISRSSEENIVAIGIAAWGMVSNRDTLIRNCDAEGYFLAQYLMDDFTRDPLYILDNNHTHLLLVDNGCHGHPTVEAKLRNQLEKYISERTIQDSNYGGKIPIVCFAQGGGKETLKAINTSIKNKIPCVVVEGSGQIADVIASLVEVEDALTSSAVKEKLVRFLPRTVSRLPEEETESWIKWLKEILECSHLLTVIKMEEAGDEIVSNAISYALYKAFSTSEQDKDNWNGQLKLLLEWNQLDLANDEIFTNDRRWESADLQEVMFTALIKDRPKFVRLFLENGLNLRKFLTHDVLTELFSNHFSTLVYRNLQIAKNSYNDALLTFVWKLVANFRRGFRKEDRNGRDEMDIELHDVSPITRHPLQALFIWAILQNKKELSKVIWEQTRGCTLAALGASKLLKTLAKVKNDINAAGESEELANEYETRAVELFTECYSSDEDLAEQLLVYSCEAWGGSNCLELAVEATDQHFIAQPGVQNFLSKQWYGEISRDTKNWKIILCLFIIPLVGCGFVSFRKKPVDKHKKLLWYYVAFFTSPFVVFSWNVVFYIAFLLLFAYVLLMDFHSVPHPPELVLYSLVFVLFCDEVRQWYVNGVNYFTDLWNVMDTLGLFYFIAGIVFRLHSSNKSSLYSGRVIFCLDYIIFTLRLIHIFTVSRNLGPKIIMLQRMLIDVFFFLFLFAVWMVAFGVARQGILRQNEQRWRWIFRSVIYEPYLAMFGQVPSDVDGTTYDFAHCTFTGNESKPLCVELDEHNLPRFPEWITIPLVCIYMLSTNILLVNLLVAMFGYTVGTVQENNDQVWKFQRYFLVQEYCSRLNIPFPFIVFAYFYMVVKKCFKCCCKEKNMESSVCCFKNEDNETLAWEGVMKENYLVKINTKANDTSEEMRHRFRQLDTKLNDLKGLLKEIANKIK

Structure (SMILES)	EC50 (human TRPM8 [1]) [µM]	EC50 (pig TRPM8 [2]) [µM]	EC50 (human TRPM8 [3]) [µM]	EC50 (pig TRPM8 [4]) [µM]
CC(C)[C@@H]1CC[C@@H](C)C[C@@]1(O)C(=O)NCCOC(=O)c1ccccc1 [Example 111, 2-((1S,2S,5R)-1-hydroxy-2-isopropyl-5-methylcyclohexane-1-carboxamido)ethyl benzoate]	5.1	5.07	0.0727	0.0251
CC(C)[C@@H]1CC[C@@H](C)C[C@@]1(O)C(=O)NC[C@@H](OCCO)c1ccccc1 [Example 56, (1S,2S,5R)-1-hydroxy-N—((S)-2-(2-hydroxyethoxy)-2-phenylethyl)-2-isopropyl-5-methylcyclohexane-1-carboxamide]	> 10	6.16	0.0196	0.0112
CC(C)[C@@H]1CC[C@@H](C)C[C@@]1(O)C(=O)NC[C@@H](OCC(=O)O)c1ccccc1 [Example 55, 2-((S)-2-((1S,2S,5R)-1-hydroxy-2-isopropyl-5-methylcyclohexane-1-carboxamido)-1-phenylethoxy)acetic acid]	4.47	3.55	0.102	0.0543
COc1ccc(CCNC(=O)[C@]2(O)C[C@H](C)CC[C@H]2C(C)C)cc1OC [Example 113, (1S,2S,5R)-N-[2-(3,4-dimethoxyphenyl)ethyl]-1-hydroxy-2-isopropyl-5-methyl-cyclohexanecarboxamide]	1.4	9.63	0.0994	0.0935
CC(C)[C@@H]1CC[C@@H](C)C[C@@]1(O)C(=O)NCCc1ccccc1OCC[N+](C)(C)C [Example 11, 2-(2-(2-((1S,2S,5R)-1-hydroxy-2-isopropyl-5-methylcyclohexane-1-carboxamido)ethyl)phenoxy)-N,N,N-trimethylethan-1-aminium iodide]	3.7	4.9	0.148	0.298
COC(=O)COc1cccc(CCNC(=O)[C@]2(O)C[C@H](C)CC[C@H]2C(C)C)c1 [Example 64, methyl 2-(3-(2-((1S,2S,5R)-1-hydroxy-2-isopropyl-5-methylcyclohexane-1-carboxamido)ethyl)phenoxy)acetate]	5.82	3.87	0.0166	0.0083
CC(C)[C@@H]1CC[C@@H](C)C[C@@]1(O)C(=O)NCC(=O)NCc1ccccc1 [Example 30, (1S,2S,5R)—N-(2-(benzylamino)-2-oxoethyl)-1-hydroxy-2-isopropyl-5-methylcyclohexane-1-carboxamide]		> 10	3.25	0.766
CC(C)[C@@H]1CC[C@@H](C)C[C@@]1(O)C(=O)NCCc1cccnc1 [Example 124, (1S,2S,5R)-1-hydroxy-2-isopropyl-5-methyl-N-[2-(3-pyridyl)ethyl]cyclohexanecarboxamide]	6.5	6.76	0.0366	0.0117
COC(=O)COc1ccccc1C(O)CNC(=O)[C@]1(O)C[C@H](C)CC[C@H]1C(C)C (stereo partly drawn) [Example 36, methyl 2-(2-(1-hydroxy-2-((1S,2S,5R)-1-hydroxy-2-isopropyl-5-methylcyclohexane-1-carboxamido)ethyl)phenoxy)acetate]	1.88	3.81	0.047	0.036
CC(C)[C@@H]1CC[C@@H](C)C[C@@]1(O)C(=O)NCCO [Example 110, (1S,2S,5R)-1-hydroxy-N-(2-hydroxyethyl)-2-isopropyl-5-methylcyclohexane-1-carboxamide]		> 10	1.64	0.639
COC(=O)CO[C@H](CNC(=O)[C@]1(O)C[C@H](C)CC[C@H]1C(C)C)c1ccccc1 [Example 57, methyl 2-((S)-2-((1S,2S,5R)-1-hydroxy-2-isopropyl-5-methylcyclohexane-1-carboxamido)-1-phenylethoxy)acetate]		> 10	0.254	0.219
COC(=O)c1ccccc1CCNC(=O)[C@]1(O)C[C@H](C)CC[C@H]1C(C)C [Example 106, methyl 2-(2-((1S,2S,5R)-1-hydroxy-2-isopropyl-5-methylcyclohexane-1-carboxamido)ethyl)benzoate]		> 10	0.0293	0.0232
CC(C)[C@@H]1CC[C@@H](C)C[C@@]1(O)C(=O)N[C@H](CCO)c1ccccc1 [Example 86, (1S,2S,5R)-1-hydroxy-N—((R)-3-hydroxy-1-phenylpropyl)-2-isopropyl-5-methylcyclohexane-1-carboxamide]		> 10	0.547	0.749

Stronger by EC50 (pig TRPM8 [2]), values ahead:

EC50 (human TRPM8 [1]) [µM]	EC50 (pig TRPM8 [2]) [µM]	EC50 (human TRPM8 [3]) [µM]	EC50 (pig TRPM8 [4]) [µM]	Structure (SMILES)
2.2	1.77	0.0224	0.0119	CC(C)[C@@H]1CC[C@@H](C)C[C@@]1(O)C(=O)NCCc1ccc(CO)cc1 [Example 109, (1S,2S,5R)-1-hydroxy-N-(4-(hydroxymethyl)phenethyl)-2-isopropyl-5-methylcyclohexane-1-carboxamide]
4.59	3.21	0.097	0.08	COC(=O)c1cccc(C(O)CNC(=O)[C@]2(O)C[C@H](C)CC[C@H]2C(C)C)c1 (stereo partly drawn) [Example 34, methyl 3-(1-hydroxy-2-((1S,2S,5R)-1-hydroxy-2-isopropyl-5-methylcyclohexane-1-carboxamido)ethyl)benzoate]
1.8	1.9	0.0424	0.0215	CC(CNC(=O)[C@]1(O)C[C@H](C)CC[C@H]1C(C)C)c1ccccc1 (stereo partly drawn) [Example 156, (1S,2S,5R)-1-hydroxy-2-isopropyl-5-methyl-N-(2-phenylpropyl)cyclohexanecarboxamide]
1	2.1	0.0439	0.0261	COc1ccccc1C(F)(F)CNC(=O)[C@]1(O)C[C@H](C)CC[C@H]1C(C)C [Example 186, (1S,2S,5R)—N-[2,2-difluoro-2-(2-methoxyphenyl)ethyl]-1-hydroxy-2-isopropyl-5-methyl-cyclohexanecarboxamide]
1.07	1.5	0.0064	0.0077	CC(C)[C@@H]1CC[C@@H](C)C[C@@]1(O)C(=O)N[C@@H]1COc2ccccc2C1 [Example 94, (1S,2S,5R)—N-((3S)-chroman-3-yl)-1-hydroxy-2-isopropyl-5-methylcyclohexane-1-carboxamide]
2.7	3.36	0.009	0.005	CC(C)[C@@H]1CC[C@@H](C)C[C@@]1(O)C(=O)NCC(=O)Oc1ccccc1 [Example 67, phenyl ((1S,2S,5R)-1-hydroxy-2-isopropyl-5-methylcyclohexane-1-carbonyl)glycinate]
3	1.25	0.0069	0.0026	CC(C)[C@@H]1CC[C@@H](C)C[C@@]1(O)C(=O)NCC(=O)Nc1ccccc1 [Example 129, (1S,2S,5R)-N-(2-anilino-2-oxo-ethyl)-1-hydroxy-2-isopropyl-5-methyl-cyclohexanecarboxamide]
0.95	0.478	0.0013	0.0007	CC(C)[C@@H]1CC[C@@H](C)C[C@@]1(O)C(=O)NCC(F)c1ccccc1 (stereo partly drawn) [Example 5, (1S,2S,5R)—N-(2-fluoro-2-phenylethyl)-1-hydroxy-2-isopropyl-5-methylcyclohexane-1-carboxamide]
	1.4	0.0053	0.004	CC(C)[C@@H]1CC[C@@H](C)C[C@@]1(O)C(=O)NCC1COc2ccccc21 (stereo partly drawn) [Example 162, (1S,2S,5R)-N-(2,3-dihydrobenzofuran-3-ylmethyl)-1-hydroxy-2-isopropyl-5-methyl-cyclohexanecarboxamide]
	2.17	0.119	0.0334	COc1ccc(NC(=O)[C@]2(O)C[C@H](C)CC[C@H]2C(C)C)cc1 [Example 174, (1S,2S,5R)-1-hydroxy-N-(4-methoxyphenyl)-5-methyl-2-propan-2-ylcyclohexane-1-carboxamide]
